What was measured:
[1] = molecular target: Neuropeptide Y Y2 (Homo sapiens, UniProt P49146); experiment: Radioligand binding assay; details: 10 μM; 37 °C, 120 min
[2] = molecular target: Endothelin ETB (Homo sapiens, UniProt P24530); experiment: Radioligand binding assay; details: 10 μM; 25 °C, 120 min
[3] = molecular target: Sigma al (Homo sapiens, UniProt Q99720); experiment: Radioligand binding assay; details: 10 μM; 37 °C, 240 min
[4] = test system: murine macrophage cell line RAW 264.7; experiment: Cytokine induction; assay type: cell-based; details: RAW 264.7 cells, graded doses overnight, ELISA (figure 1A)
[5] = test system: Glutamate, NMDA, Phencyclidine; experiment: Radioligand binding assay; set-up: species or system rat; details: 10 μM; 25 °C, 45 min
[6] = molecular target: Muscarinic M3 (Homo sapiens, UniProt P20309); assay type: binding; details: 10 μM; 25 °C, 120 min
[7] = molecular target: Bradykinin B1 (Homo sapiens, UniProt P46663); experiment: Radioligand binding assay; details: 10 μM; 25 °C, 60 min
[8] = molecular target: Transporter, Serotonin (5-Hyd roxytryptamine) (SERT) (Homo sapiens, UniProt P31645); assay type: binding; details: 10 μM; 25 °C, 60 min
[9] = test system: Glutamate, NMDA, Agonism; experiment: Radioligand binding assay; set-up: species or system rat; details: 10 μM; 4 °C, 20 min
[10] = molecular target: Glucocorticoid (Homo sapiens, UniProt P04150); experiment: Radioligand binding assay; details: 10 μM; 25 °C, 120 min
[11] = molecular target: Platelet Activating Factor (PA F) (Homo sapiens, UniProt P25105); experiment: Radioligand binding assay; details: 10 μM; 25 °C, 180 min
[12] = molecular target: Serotonin (5-Hydroxytryptam ine) 5-HT2B (Homo sapiens, UniProt P41595); experiment: Radioligand binding assay; details: 10 μM; 37 °C, 60 min
[13] = molecular target: Adrenergic a1B (Rattus norvegicus, UniProt P15823); experiment: Radioligand binding assay; details: 10 μM; 25 °C, 60 min
[14] = molecular target: CYP450, 3A4 (Homo sapiens, UniProt P08684); experiment: Cytochrome P450 enzyme assay; assay type: in vitro ADME; details: 10 μM; 37 °C, 30 min
[15] = molecular target: Serotonin (5-Hydroxytryptam ine) 5-HT1A (Homo sapiens, UniProt P08908); experiment: Radioligand binding assay; details: 10 μM; 25 °C, 60 min
[16] = molecular target: Muscarinic M1 (Homo sapiens, UniProt P11229); assay type: binding; details: 10 μM; 25 °C, 120 min
[17] = molecular target: CYP450, 1A2 (Homo sapiens, UniProt P05177); experiment: Cytochrome P450 enzyme assay; assay type: in vitro ADME; details: 10 μM; 37 °C, 30 min
[18] = molecular target: Serotonin (5-Hydroxytryptam ine) 5-HT3 (Homo sapiens, UniProt P46098); experiment: Radioligand binding assay; details: 10 μM; 37 °C, 60 min
[19] = molecular target: Cannabinoid CB1 (Homo sapiens, UniProt P21554); experiment: Radioligand binding assay; details: 10 μM; 37 °C, 90 min
[20] = molecular target: Dopamine D1 (Homo sapiens, UniProt P21728); experiment: Radioligand binding assay; details: 10 μM; 37 °C, 120 min
[21] = molecular target: Prostanoid EP4 (Homo sapiens, UniProt P35408); experiment: Radioligand binding assay; details: 10 μM; 25 °C, 120 min
[22] = molecular target: Adenosine A1 (Homo sapiens, UniProt P30542); experiment: Radioligand binding assay; details: 10 μM; 25 °C, 90 min
[23] = molecular target: Histamine H3 (Homo sapiens, UniProt Q9Y5N1); experiment: Radioligand binding assay; details: 10 μM; 25 °C, 120 min
[24] = test system: Calcium Channel L-Type, Dihydropyridine; experiment: Radioligand binding assay; set-up: species or system rat; details: 10 μM; 25 °C, 90 min
[25] = molecular target: Endothelin ETA (Homo sapiens, UniProt P25101); experiment: Radioligand binding assay; details: 10 μM; 37 °C, 120 min
[26] = molecular target: Transporter, GABA (Rattus norvegicus, UniProt P23978); experiment: Radioligand binding assay; details: 10 μM; 25 °C, 20 min
[27] = molecular target: Histamine H1 (Homo sapiens, UniProt P35367); assay type: binding; details: 10 μM; 25 °C, 180 min
[28] = molecular target: Interleukin IL-1 (Mus musculus, UniProt P13504); experiment: Radioligand binding assay; details: 10 μM; 37 °C, 120 min
[29] = test system: Sodium Channel, Site 2 289593; experiment: Radioligand binding assay; set-up: species or system rat; details: 10 μM; 37 °C, 60 min
[30] = molecular target: Bradykinin B2 (Homo sapiens, UniProt P30411); experiment: Radioligand binding assay; details: 10 μM; 25 °C, 60 min
[31] = test system: Purinergic P2,; experiment: Radioligand binding assay; set-up: species or system rat; details: 10 μM; 25 °C, 60 min
[32] = test system: TLR7; experiment: In vitro TLR7-dependent cytokine induction, overall potency comparison; assay type: cell-based
[33] = molecular target: Potassium Channel hERG (Homo sapiens, UniProt Q12809); experiment: Radioligand binding assay; details: 10 μM; 25 °C, 60 min
[34] = molecular target: Epidermal Growth Factor (EG F) (Homo sapiens, UniProt P00533); experiment: Radioligand binding assay; details: 10 μM; 25 °C, 60 min
[35] = molecular target: Adrenergic a2A (Homo sapiens, UniProt P08913); experiment: Radioligand binding assay; details: 10 μM; 25 °C, 60 min
[36] = molecular target: Dopamine D24 (Homo sapiens, UniProt P14416); experiment: Radioligand binding assay; details: 10 μM; 37 °C, 120 min
[37] = test system: Phorbol Ester; experiment: Radioligand binding assay; set-up: species or system mouse; details: 10 μM; 25 °C, 60 min
[38] = molecular target: Calcium Channel N-Type (Rattus norvegicus, UniProt Q02294); experiment: Radioligand binding assay; details: 10 μM; 4 °C, 30 min
[39] = molecular target: CYP450, 2C19 (Homo sapiens, UniProt P33261); experiment: Cytochrome P450 enzyme assay; assay type: in vitro ADME; details: 10 μM; 37 °C, 45 min
[40] = molecular target: Opiate n (OP3, MOP) (Homo sapiens, UniProt P35372); experiment: Radioligand binding assay; details: 10 μM; 25 °C, 60 min
[41] = molecular target: Adrenergic a1D (Homo sapiens, UniProt P25100); experiment: Radioligand binding assay; details: 10 μM; 25 °C, 60 min
Adrenergic a1D, sequence (P25100 whole entry): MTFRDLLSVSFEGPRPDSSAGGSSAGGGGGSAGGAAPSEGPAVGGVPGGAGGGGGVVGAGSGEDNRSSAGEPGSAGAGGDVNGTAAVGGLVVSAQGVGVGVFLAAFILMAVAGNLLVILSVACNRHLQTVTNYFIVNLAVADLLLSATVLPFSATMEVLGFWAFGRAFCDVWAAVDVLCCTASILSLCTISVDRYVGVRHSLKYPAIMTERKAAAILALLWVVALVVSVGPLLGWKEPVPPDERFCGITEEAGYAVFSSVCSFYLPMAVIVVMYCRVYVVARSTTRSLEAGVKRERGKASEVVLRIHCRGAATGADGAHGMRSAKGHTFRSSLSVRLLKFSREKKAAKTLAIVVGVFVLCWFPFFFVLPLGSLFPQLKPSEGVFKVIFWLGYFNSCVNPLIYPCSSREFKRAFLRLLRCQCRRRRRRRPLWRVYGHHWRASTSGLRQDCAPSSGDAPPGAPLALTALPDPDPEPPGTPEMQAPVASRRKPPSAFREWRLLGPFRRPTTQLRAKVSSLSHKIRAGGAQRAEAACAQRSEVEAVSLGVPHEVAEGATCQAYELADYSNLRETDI

Histamine H3, sequence (Q9Y5N1 whole entry): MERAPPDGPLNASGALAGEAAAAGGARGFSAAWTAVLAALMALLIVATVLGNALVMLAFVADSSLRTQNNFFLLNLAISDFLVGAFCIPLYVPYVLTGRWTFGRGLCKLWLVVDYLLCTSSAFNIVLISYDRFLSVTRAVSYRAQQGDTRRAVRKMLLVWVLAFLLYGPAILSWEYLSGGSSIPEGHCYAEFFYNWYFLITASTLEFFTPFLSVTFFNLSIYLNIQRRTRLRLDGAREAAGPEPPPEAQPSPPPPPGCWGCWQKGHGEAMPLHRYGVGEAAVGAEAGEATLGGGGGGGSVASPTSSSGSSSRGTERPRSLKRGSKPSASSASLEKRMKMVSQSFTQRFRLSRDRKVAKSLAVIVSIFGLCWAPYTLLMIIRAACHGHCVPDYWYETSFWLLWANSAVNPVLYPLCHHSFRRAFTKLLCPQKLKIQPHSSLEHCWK
Endothelin ETB, sequence (P24530 27-442): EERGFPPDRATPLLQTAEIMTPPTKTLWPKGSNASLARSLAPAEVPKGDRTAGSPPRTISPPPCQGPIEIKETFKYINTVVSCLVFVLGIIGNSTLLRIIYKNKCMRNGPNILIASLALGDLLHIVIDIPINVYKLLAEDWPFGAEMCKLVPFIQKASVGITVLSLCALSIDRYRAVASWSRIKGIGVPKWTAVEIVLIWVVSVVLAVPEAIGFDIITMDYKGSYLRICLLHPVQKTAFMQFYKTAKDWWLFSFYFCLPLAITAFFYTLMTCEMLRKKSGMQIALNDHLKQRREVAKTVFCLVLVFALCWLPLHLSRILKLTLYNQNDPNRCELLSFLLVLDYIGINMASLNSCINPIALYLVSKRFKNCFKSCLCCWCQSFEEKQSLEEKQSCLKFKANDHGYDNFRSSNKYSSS
CYP450, 3A4, sequence (P08684 whole entry): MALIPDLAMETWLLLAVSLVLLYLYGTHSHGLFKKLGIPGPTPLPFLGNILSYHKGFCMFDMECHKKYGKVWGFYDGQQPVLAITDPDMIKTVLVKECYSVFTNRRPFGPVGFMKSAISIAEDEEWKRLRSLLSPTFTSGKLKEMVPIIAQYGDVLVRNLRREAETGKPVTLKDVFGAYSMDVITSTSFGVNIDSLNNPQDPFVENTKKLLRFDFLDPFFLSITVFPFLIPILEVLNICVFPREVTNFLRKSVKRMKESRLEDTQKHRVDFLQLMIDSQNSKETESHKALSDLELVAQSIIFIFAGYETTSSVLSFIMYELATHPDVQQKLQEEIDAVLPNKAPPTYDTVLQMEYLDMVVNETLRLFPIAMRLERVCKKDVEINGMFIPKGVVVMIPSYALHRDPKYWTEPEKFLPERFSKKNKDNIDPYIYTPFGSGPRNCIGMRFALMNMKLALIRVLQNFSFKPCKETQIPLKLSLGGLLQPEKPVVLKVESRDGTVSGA
CYP450, 1A2, sequence (P05177 whole entry): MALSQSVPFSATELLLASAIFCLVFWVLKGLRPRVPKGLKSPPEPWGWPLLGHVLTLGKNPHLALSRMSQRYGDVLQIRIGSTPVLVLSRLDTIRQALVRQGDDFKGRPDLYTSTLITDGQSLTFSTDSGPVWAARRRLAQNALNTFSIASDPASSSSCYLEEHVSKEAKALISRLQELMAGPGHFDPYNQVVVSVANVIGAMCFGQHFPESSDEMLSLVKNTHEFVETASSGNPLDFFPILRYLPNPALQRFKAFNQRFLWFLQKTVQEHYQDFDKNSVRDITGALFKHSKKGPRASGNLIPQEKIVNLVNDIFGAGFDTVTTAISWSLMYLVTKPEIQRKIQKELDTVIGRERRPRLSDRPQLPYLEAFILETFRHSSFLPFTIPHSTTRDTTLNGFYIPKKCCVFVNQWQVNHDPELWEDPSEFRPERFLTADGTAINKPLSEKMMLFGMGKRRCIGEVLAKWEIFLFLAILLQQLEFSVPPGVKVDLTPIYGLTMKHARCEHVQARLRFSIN
Muscarinic M3, sequence (P20309 whole entry): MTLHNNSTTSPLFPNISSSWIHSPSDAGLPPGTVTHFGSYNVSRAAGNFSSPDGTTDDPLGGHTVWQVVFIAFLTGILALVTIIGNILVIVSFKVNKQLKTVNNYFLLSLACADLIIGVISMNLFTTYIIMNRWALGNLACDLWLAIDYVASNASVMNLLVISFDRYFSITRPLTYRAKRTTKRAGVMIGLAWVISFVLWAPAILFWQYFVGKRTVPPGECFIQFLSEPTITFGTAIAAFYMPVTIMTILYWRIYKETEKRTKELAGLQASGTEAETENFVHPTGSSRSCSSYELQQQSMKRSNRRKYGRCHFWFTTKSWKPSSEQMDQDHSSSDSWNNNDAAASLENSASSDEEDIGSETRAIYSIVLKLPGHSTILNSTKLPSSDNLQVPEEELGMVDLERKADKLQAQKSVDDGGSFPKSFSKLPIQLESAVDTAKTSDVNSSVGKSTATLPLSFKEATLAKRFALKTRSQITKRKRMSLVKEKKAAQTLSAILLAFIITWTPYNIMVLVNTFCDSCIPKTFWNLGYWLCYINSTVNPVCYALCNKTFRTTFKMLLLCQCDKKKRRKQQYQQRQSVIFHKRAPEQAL
Serotonin (5-Hydroxytryptam ine) 5-HT1A, sequence (P08908 whole entry): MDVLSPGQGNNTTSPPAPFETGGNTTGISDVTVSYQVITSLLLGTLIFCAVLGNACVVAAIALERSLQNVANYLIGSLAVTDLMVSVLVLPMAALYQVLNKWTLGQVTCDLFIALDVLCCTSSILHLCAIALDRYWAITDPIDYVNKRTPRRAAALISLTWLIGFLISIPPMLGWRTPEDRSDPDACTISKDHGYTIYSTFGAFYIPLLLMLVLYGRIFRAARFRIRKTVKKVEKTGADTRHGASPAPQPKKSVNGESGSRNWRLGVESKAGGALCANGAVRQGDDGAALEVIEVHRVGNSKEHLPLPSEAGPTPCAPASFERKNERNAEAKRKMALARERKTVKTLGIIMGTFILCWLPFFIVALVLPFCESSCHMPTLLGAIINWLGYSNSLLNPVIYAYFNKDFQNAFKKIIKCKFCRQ
Muscarinic M1, sequence (P11229 whole entry): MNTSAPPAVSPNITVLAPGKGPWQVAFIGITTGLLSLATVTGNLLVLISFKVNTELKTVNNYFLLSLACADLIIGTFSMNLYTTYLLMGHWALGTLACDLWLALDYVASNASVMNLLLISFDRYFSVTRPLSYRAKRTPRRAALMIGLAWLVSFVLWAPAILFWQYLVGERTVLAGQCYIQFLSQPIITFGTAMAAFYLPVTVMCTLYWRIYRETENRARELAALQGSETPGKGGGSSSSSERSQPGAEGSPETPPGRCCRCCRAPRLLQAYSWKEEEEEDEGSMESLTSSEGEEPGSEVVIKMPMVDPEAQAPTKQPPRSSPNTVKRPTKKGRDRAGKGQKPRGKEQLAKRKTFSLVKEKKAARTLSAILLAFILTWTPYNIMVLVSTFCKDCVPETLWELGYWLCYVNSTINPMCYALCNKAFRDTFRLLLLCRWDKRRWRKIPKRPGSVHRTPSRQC
Interleukin IL-1, sequence (P13504 20-576): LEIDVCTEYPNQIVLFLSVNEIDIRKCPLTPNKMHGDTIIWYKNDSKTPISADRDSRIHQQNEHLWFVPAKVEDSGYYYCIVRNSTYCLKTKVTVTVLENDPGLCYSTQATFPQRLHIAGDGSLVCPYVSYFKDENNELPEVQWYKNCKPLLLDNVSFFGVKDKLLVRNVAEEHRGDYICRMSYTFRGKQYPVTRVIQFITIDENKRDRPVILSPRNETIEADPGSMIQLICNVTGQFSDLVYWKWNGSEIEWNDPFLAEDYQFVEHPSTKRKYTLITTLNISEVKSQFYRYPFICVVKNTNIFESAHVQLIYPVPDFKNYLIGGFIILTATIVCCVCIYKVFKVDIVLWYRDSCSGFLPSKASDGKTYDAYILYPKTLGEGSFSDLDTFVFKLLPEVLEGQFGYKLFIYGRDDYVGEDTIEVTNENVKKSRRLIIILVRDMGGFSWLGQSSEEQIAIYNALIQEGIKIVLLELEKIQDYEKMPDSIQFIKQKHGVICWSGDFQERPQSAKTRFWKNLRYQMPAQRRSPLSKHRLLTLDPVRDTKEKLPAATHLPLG
Serotonin (5-Hydroxytryptam ine) 5-HT2B, sequence (P41595 whole entry): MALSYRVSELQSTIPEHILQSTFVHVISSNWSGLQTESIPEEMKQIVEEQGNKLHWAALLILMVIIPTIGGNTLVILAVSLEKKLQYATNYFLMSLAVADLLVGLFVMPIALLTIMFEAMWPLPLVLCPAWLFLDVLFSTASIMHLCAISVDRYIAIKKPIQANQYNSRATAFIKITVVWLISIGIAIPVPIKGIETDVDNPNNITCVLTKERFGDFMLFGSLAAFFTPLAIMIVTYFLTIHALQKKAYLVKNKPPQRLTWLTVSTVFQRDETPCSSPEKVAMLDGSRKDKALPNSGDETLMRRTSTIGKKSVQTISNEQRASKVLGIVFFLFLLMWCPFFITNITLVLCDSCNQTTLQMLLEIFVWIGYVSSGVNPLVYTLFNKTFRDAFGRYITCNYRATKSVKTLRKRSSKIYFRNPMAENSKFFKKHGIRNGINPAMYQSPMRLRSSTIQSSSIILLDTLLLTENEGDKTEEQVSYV

SMILES: CCCCCCCCCCCC(=O)OC[C@@H](COP(=O)(O)OCCNC(=O)c1ccc(Cn2c(=O)[nH]c3c(N)nc(OCCOC)nc32)cc1)OC(=O)CCCCCCCCCCC [TMX-202]
- Percent inhibition of specific radioligand binding [1]: 4%
- Percent inhibition of specific radioligand binding [2]: −7%
- Percent inhibition of specific radioligand binding [3]: −5%
- Potency of mTNFα induction compared with IMQ [4]: more potent cytokine inducer
- Percent inhibition of specific radioligand binding [5]: 2%
- Percent inhibition of specific radioligand binding [6]: −6%
- Percent inhibition of specific radioligand binding [7]: 3%
- Percent inhibition of specific radioligand binding [8]: 18%
- Percent inhibition of specific radioligand binding [9]: 10%
- Percent inhibition of specific radioligand binding [10]: −1%
- Percent inhibition of specific radioligand binding [11]: 33%
- Percent inhibition of specific radioligand binding [12]: 1%
- Percent inhibition of specific radioligand binding [13]: 0%
- Percent inhibition of enzyme activity [14]: −1%
- Percent inhibition of specific radioligand binding [15]: −7%
- Percent inhibition of specific radioligand binding [16]: 0%
- Percent inhibition of enzyme activity [17]: −4%
- Percent inhibition of specific radioligand binding [18]: 3%
- Percent inhibition of specific radioligand binding [19]: −14%
- Percent inhibition of specific radioligand binding [20]: 15%
- Percent inhibition of specific radioligand binding [21]: 7%
- Percent inhibition of specific radioligand binding [22]: 10%
- Percent inhibition of specific radioligand binding [23]: −14%
- Percent inhibition of specific radioligand binding [24]: 10%
- Percent inhibition of specific radioligand binding [25]: 13%
- Percent inhibition of specific radioligand binding [26]: 1%
- Percent inhibition of specific radioligand binding [27]: −6%
- Percent inhibition of specific radioligand binding [28]: 5%
- Percent inhibition of specific radioligand binding [29]: 15%
- Percent inhibition of specific radioligand binding [30]: −2%
- Percent inhibition of specific radioligand binding [31]: 8%
- Potency relative to IMQ in causing TLR7-dependent cytokine induction [32]: 100 times
- Percent inhibition of specific radioligand binding [33]: −4%
- Percent inhibition of specific radioligand binding [34]: 6%
- Percent inhibition of specific radioligand binding [35]: 3%
- Percent inhibition of specific radioligand binding [36]: 25%
- Percent inhibition of specific radioligand binding [37]: −8%
- Percent inhibition of specific radioligand binding [38]: −12%
- Percent inhibition of enzyme activity [39]: 1%
- Percent inhibition of specific radioligand binding [40]: 42%
- Percent inhibition of specific radioligand binding [41]: 6%
